Experimental data from patent publication US10125138B2, “Triazolotriazinone derivatives having activity a s herbicides” (Syngenta Participations AG, priority 2015, dated 2018).

Assays:
Assay type in all cases: in vivo
Conditions in all cases: 1000 g/h, evaluated after 13 days, five point scale
[1] = test system: Lolium perenne (LOLPE); test: Post-emergence glasshouse herbicide test, Lolium perenne
[2] = test system: Setaria faberi (SETFA); test: Pre-emergence glasshouse herbicide test, Setaria faberi
[3] = test system: Solanum nigrum (SOLNI); test: Post-emergence glasshouse herbicide test, Solanum nigrum
Summary of the method: (§1)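 Score out of five (1=0-19% through 5=80-100% damage), read 13 days post-application. Plants in standard soil received 1000 g/h in acetone/water with 0.5% Tween 20, pre-emergence at day 1 or post-emergence at day 8.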

[4] = test system: Echinochloa crus-galli (ECHCG); test: Post-emergence glasshouse herbicide test, Echinochloa crus-galli
[5] = test system: Setaria faberi (SETFA); test: Post-emergence glasshouse herbicide test, Setaria faberi
[6] = test system: Ipomoea hederacea (IPOHE); test: Post-emergence glasshouse herbicide test, Ipomoea hederacea
[7] = test system: Ipomoea hederacea (IPOHE); test: Pre-emergence glasshouse herbicide test, Ipomoea hederacea
[8] = test system: Echinochloa crus-galli (ECHCG); test: Pre-emergence glasshouse herbicide test, Echinochloa crus-galli
[9] = test system: Solanum nigrum (SOLNI); test: Pre-emergence glasshouse herbicide test, Solanum nigrum
Summary of the method: as §1

[10] = test system: Lolium perenne (LOLPE); test: Pre-emergence glasshouse herbicide test, Lolium perenne
[11] = test system: Amaranthus retoflexus (AMARE); test: Pre-emergence glasshouse herbicide test, Amaranthus retoflexus
[12] = test system: Amaranthus retoflexus (AMARE); test: Post-emergence glasshouse herbicide test, Amaranthus retoflexus

O=C1CCCC(=O)C1C(=O)c1nn2cnn(-c3ccc(F)cc3)c2nc1=O [Compound 4.002]
percentage damage caused to the plant, POST Application LOLPE [1]: 5 (5=80-100%) | percentage damage caused to the plant, PRE Application SETFA [2]: 5 (5=80-100%) | percentage damage caused to the plant, POST Application SOLNI [3]: 5 (5=80-100%) | percentage damage caused to the plant, POST Application ECHCG [4]: 5 (5=80-100%) | percentage damage caused to the plant, POST Application SETFA [5]: 5 (5=80-100%) | percentage damage caused to the plant, POST Application IPOHE [6]: 5 (5=80-100%) | percentage damage caused to the plant, PRE Application IPOHE [7]: 5 (5=80-100%) | percentage damage caused to the plant, PRE Application ECHCG [8]: 5 (5=80-100%) | percentage damage caused to the plant, PRE Application SOLNI [9]: 5 (5=80-100%) | percentage damage caused to the plant, PRE Application LOLPE [10]: 4 (4=60-79%) | percentage damage caused to the plant, PRE Application AMARE [11]: 5 (5=80-100%) | percentage damage caused to the plant, POST Application AMARE [12]: 5 (5=80-100%)

COc1cccc(-n2ncn3nc(C(=O)C4C(=O)CCCC4=O)c(=O)nc23)c1 [Compound 4.010]
percentage damage caused to the plant, POST Application LOLPE [1]: 4 (4=60-79%) | percentage damage caused to the plant, PRE Application SETFA [2]: 5 (5=80-100%) | percentage damage caused to the plant, POST Application SOLNI [3]: 5 (5=80-100%) | percentage damage caused to the plant, POST Application ECHCG [4]: 5 (5=80-100%) | percentage damage caused to the plant, POST Application SETFA [5]: 5 (5=80-100%) | percentage damage caused to the plant, POST Application IPOHE [6]: 5 (5=80-100%) | percentage damage caused to the plant, PRE Application IPOHE [7]: 5 (5=80-100%) | percentage damage caused to the plant, PRE Application ECHCG [8]: 5 (5=80-100%) | percentage damage caused to the plant, PRE Application SOLNI [9]: 5 (5=80-100%) | percentage damage caused to the plant, PRE Application LOLPE [10]: 5 (5=80-100%) | percentage damage caused to the plant, PRE Application AMARE [11]: 5 (5=80-100%) | percentage damage caused to the plant, POST Application AMARE [12]: 5 (5=80-100%)
